Data taken from patent US20230123488A1, “STABLE TOPICAL TETRACYCLINE COMPOSITIONS” (VYNE THERAPEUTICS INC., priority 2017, published 2023).
Structures can show the parent of a compound that is named as a salt. Where two headings read alike, the source gives them in different places.

Experiments:
[1] = Compatibility test of active agent with excipients; type: physicochemical; details: excipients: soybean oil, paraffin 57-64, polyvinyl alcohol and hydroxypropylcellulose (klucel)
Procedure: Compatibility tests were performed as described in US8,343,945 and US8,945,516, which are incorporated here by reference with respect to the excipients and their compatibility described herein. […] The mixture was assessed for active agent degradation and optionally for color change.

[2] = Cyclomethicone 5 NF, Diisopropyl adipate, Hydrogenated Castor Oil, MCT Oil, cited from earlier work
[3] = Doxycycline solubility in various solvents; type: physicochemical; details: supernatant
Procedure: Saturated solutions of doxycycline hyclate are prepared by stirring doxycycline in approximately 20 g of solvents for over 48 hours at room temperature. By the end of stirring, all samples have solids in equilibrium with liquids. The samples are filtered and subjected to quantification using UPLC.
Each composition was subjected to centrifugation and the supernatant with dissolved active agent analyzed. The weight /weight percentage of active agent found dissolved in each solvent is shown below: […]

[4] = in Isopropyl myristate, room temperature, 72 hours
[5] = in Oleic acid, room temperature, 72 hours

Row | Compound | Compatibility with additional excipients [1] | Compatibility with excipients ([2]; excipients: Aerosil, Almond oil, Avocado oil, Beeswax, Behenyl alcohol, Calendula oil, Castor oil, Cetearyl octanoate, Cetostearyl alcohol, Cetyl alcohol, Cocoglycerides, Coconut oil, Gelled mineral oil, Grape seed oil, Hard Fat, Isododecane, isopropyl myristate, Isostearyl alcohol, Jojoba oil, Menthol, Myrist) | Doxycycline content (solubility) [3, 4] | Doxycycline content (solubility) [3, 5] | Compatibility with excipients ([2]; excipients: Cetearyl octanoate, Ethanol 95%, Hexylene glycol, Isostearic acid, Mineral Oil, Myristyl alcohol, Oleyl alcohol, PEG 100 Stearate, PPG-15 Stearyl Ether, Sorbitan Monostearate (SPAN 60), Stearyl alcohol) | Doxycycline content (solubility) ([3]; in 1,3 propane-di-ol, room temperature, 72 hours) [% w/w] | Doxycycline content (solubility) ([3]; in Dimethyl isosorbide, excess doxycycline hyclate stirred at room temperature for 72 hours) [% w/w] | Doxycycline content (solubility) ([3]; in Dimethyl sulfoxide, room temperature, 72 hours) [% w/w] | Doxycycline content (solubility) ([3]; in Ethanol, room temperature, 72 hours) [% w/w] | Doxycycline content (solubility) ([3]; in Glycerin, room temperature, 72 hours) [% w/w] | Doxycycline content (solubility) ([3]; in Hexylene glycol, room temperature, 72 hours) [% w/w] | Doxycycline content (solubility) ([3]; in Isopropanol, room temperature, 72 hours) [% w/w] | Doxycycline content (solubility) ([3]; in Oleyl alcohol, room temperature, 72 hours) [% w/w] | Doxycycline content (solubility) ([3]; in Propylene carbonate, room temperature, 72 hours) [% w/w] | Doxycycline content (solubility) ([3]; in Propylene glycol, room temperature, 72 hours) [% w/w] | Doxycycline content (solubility) ([3]; in Transcutol, room temperature, 72 hours) [% w/w]
1 | CN(C)c1ccc(O)c2c1C[C@H]1C[C@H]3[C@H](N(C)C)C(O)=C(C(N)=O)C(=O)[C@@]3(O)C(O)=C1C2=O [minocycline HCL, Minocycline HCL] | compatible | compatible |  |  |  |  |  |  |  |  |  |  |  |  |  | 
2 | C[C@H]1c2cccc(O)c2C(=O)C2=C(O)[C@]3(O)C(=O)C(C(N)=O)=C(O)[C@@H](N(C)C)[C@@H]3[C@@H](O)[C@@H]21 [doxycycline, Doxycycline] |  |  | Not detected | Not detected |  |  |  |  |  |  |  |  |  |  |  | 
3 | Doxycycline Hyclate [Dox hyclate] |  |  | Not detected | Not detected | compatible | 21.56 | 4.12 | 25.34 | 3.15 | 18.28 | 5.47 | 1.67 | 0.29 | 0.78 | 34.17 | 16.30
